1 compound from patent US9963474B2, “Mitochondria-targeted dicarbonyl sequestering compounds” (MEDICAL RESEARCH COUNCIL, priority 2013, dated 2018) can be followed below.

The nature of data set [1]: Partition coefficients between PBS and octan-1-ol. The note with it: octan-1-ol/PBS, means ± SE of 3 determinations, read-out: Partition coefficient (converted). The format is physicochemical. Here is the method: RP-HPLC was performed using a Gilson 321 pump with a C18 column (Jupiter 300 Å, Phenomenex) with a Widepore C18 guard column (Phenomenex). Samples (1 ml) were injected through a 0.22 μm PVDF filter (Millex, Millipore). HPLC buffer A [0.1% TFA in water] and HPLC buffer B (90% acetonitrile and 0.1% TFA) were used and a gradient was run at 1 ml/min at room temperature as follows: 0-2 min—5% B; 2-17 min—5-100% B; 17-19 min—100% B; 19-22 min—100-5% B. Peaks were detected by absorbance at 220 nm (UV/Vis 151, Gilson) and by fluorescence (excitation and emission wavelengths of 344 and 433 nm; RF-10AXL, Shimadzu). Partition coefficients between PBS and octan-1-ol were determined as previously described.

Data set [2] is described as follows: Competitive rate experiment for methylglyoxal monitored by 1H NMR. The note with it: 0.12 mM, DMSO, 25° C.
The subject of another data set is C2C12 cells. The experiment in a line: Cell survival, MTS assay, C2C12. The data set is classed as cell-based, mouse. The following applies: C2C12, 24 h. Here is the method: (§1) (A, B) RLM respiring on glutamate/malate at 37° C. were incubated with various concentrations of MitoG for 7 min in an oxygen electrode to measure coupled respiration (A) before ADP was added to measure phosphorylating respiration (B). Data are the percentage of the respiration rates of untreated controls (dashed lines). (C and D) C2C12 cells (C) or BAECs [Bovine Aortic Endothelial Cells; Cell Applications Inc, San Diego, Calif.] (D) were incubated with MitoG for 24 h and cell survival was then determined using the MTS assay. Data are expressed as a percentage of the untreated controls (dashed line). (E-H) BAECs were incubated with MitoG for 2 h at 37° C. and the cellular oxygen consumption rate (OCR) after the sequential additions of oligomycin, FCCP and antimycin A/rotenone were then measured using a Seahorse XF24 analyser. (E) OCR due to ATP synthesis, (F) OCR due to proton leak, (G) reserve capacity and (H) non-mitochondrial oxygen consumption. Results are means±S.E. of three independent experiments. *, P<0.05 or **, P<0.01 relative to untreated controls.
(§2) To assess cell viability, C2C12 cells or BAECs were seeded at a density of 10,000 cells/well and 40,000 cells/well, respectively, in 96-well plates. […] After 2 h absorbance was read at 490 nm in a plate reader (SpectraMax Plus 384, Molecular Devices). […]

A further data set relates to BAECs. The experiment in a line: Cell survival, MTS assay, BAECs. The format is cell-based, bovine. The note with it: BAEC, 24 h. On the procedure: as §1, §2
On the technique in general: Formazan colour is commonly taken as a measure of viable cells.

In data set [3] the test system is horse-radish peroxidase (HRP). The experiment in a line: Stability under oxidative conditions (HRP and hydrogen peroxide). The data set is classed as physicochemical. On the procedure: MitoG 100 μM was mixed with 0.07 U horse-radish peroxidase (HRP) in a 1 ml curvette containing 100 mM potassium phosphate buffer (pH 6.0) and 0.5% (w/v) hydrogen peroxide at room temperature. A reference curvette and a blank were similarly set up with DMSO in place of MitoG. Scanning UV/Vis spectra were then taken at 1 min, 5 min and 10 min after mixing using a spectrophotometer (Shimadzu UV-2501PC). Spectra of MitoG-containing mixtures were compared against the spectrum of the blank. To determine if any reaction observed could be prevented by the HRP inhibitor, NaN3 [58, 59] separate incubations were set up as above but containing 8 mg/ml NaN3 as well.
Oxidative degradation of o-phenylenediamine is known to result in the production of methylglyoxal and glyoxal. This oxidative degradation can lead to an overestimation of dicarbonyl levels in samples if o-phenylenediamine is used to try to quantify methylglyoxal and glyoxal levels in biological samples. To determine if MitoG could undergo similar oxidative degradation to methylglyoxal and glyoxal, MitoG was incubated with HRP and hydrogen peroxide in vitro. Scanning UV/Vis spectra of the reaction mixture were taken before and after the addition of HRP. HRP was used as a representative peroxidase that could catalyse an oxidative degradation in a cellular environment. […] These changes are prevented by the HRP inhibitor, NaN3.

Data set [4] relates to RLM respiring on glutamate/malate. The data set is described as follows: Protection against dicarbonyl-induced respiratory depression in isolated RLM. Set-up: species or system rat. The note with it: 37° C. On the procedure: Isolated RLM respiring on glutamate/malate were incubated with MitoG, methoxyphenylenediamine (MP) or butylTPP for 2 min, followed by 0.5 mM methylglyoxal or 5 mM glyoxal for 5 min. ADP was then added and the rate of oxygen consumption monitored at 37° C. (see FIGS. 12A & 12B). C2C12 cells were pre-treated with MitoG, methoxyphenylenediamine (MP) or butylTPP for 1 h before exposure to 1 mM methylglyoxal or 5 mM glyoxal (see FIGS. 12C & 12D). Following an overnight incubation, cell survival was determined using the MTS assay. Similar experiments were conducted in BAECs pre-treated with MitoG, MP or butylTPP. For all experiments, concentrations of methylglyoxal and glyoxal used were chosen based on results from studies conducted prior to the protection assays. In these prior studies, RLM or cells were exposed to a range of dicarbonyl concentrations, and the phosphorylating rates of respiration or cell survival were evaluated. The results of these earlier experiments are shown in insets, and dicarbonyl concentrations that had caused significant respiratory depression or cell death were chosen for use in the protection assays. Data for all groups were normalized against untreated controls. For RLM, the rate of respiration by untreated controls was taken to be 100%; for cells, cell survival of untreated controls was taken to be 100%. Results are expressed as mean±S.E. of three independent experiments. MitoG was protective against methylglyoxal-induced respiratory depression and both methylglyoxal- and glyoxal-induced cell death in C2C12 cells and BAECs. […] In FIG. 12 the symbols *, ** respectively indicate that P<0.05 or P<0.01 relative to dicarbonyl-only groups; and the symbols +, ++ respectively indicate that P<0.05 or P<0.01 relative to untreated controls.

With `Nc1ccc(OCCCCCC[P+](c2ccccc2)(c2ccccc2)c2ccccc2)cc1N` [MitoG, (6-(3,4-Diaminophenoxy)hexyl)triphenylphosphonium chloride], the logD in data set [1] is 0.38. Further, the “reactivity relative to o-phenylenediamine for methylglyoxal” value in data set [2] was approximately 1.8 ×. In addition, the figures for the “concentration above which cell viability decreased” value in the data set on C2C12 cells and in the data set with BAECs were “above 10 μM” and more than 50 µM, respectively. Further, the “degradation in the presence of HRP” value in data set [3] (100 μM, 0.07 U HRP, 0.5% hydrogen peroxide, pH 6.0, room temperature) was “degrades in the presence of HRP”. The “oxidative degradation to methylglyoxal and glyoxal” value in data set [3] (HRP and hydrogen peroxide, product absorbs at 430 nm) was “does not undergo oxidative degradation to form methylglyoxal and glyoxal”. In addition, the “protection against methylglyoxal-induced respiratory depression” value in data set [4] (0.5 mM methylglyoxal) was “protected against methylglyoxal-induced respiratory depression in isolated RLM in a dose-dependent manner”. Besides, the “protection against glyoxal-induced respiratory depression” value in data set [4] (5 mM glyoxal) is listed as “did not prevent glyoxal damage”.
